Legend:
human PVR = target: T1, human PVR (Homo sapiens, UniProt P15151); assay: Microscale thermophoresis (MST) binding
T1 construct: His; purchased ACRO Biosystem CD5-H5223
Experimental: (§1) MST assays were performed to test the affinity of SMI-F11 (azelnidipine) to the indicated protein using the Monolith NT.115 system, as previously reported. His tagged human SIRPα (SIA-H5225, ACRO Biosystem, Beijing, China), mouse SIRPα (50956-M08H, Sino Biological, Beijing, China), human PVR (CD5-H5223, ACRO Biosystem, Beijing, China), and mouse PVR (50259-M08H, Sino Biological, Beijing, China) were used. The protein was labeled with Red-NHS647 dye (NanoTemper Technologies GmhH, Munich, Germany) according to the manufacturer’s instructions. Azelnidipine was 2-fold serially diluted from 200 μM and subsequently tested. Red-NHS647 dye-labeled protein was incubated with the diluted azelnidipine, with equal volume for 5 min at room temperature; the mixture was then loaded onto standard capillaries for detection. The KD values were calculated by the analysis software (MO. Affinity Analysis, version number 2.2.4, NanoTemper Technologies GmhH, Munich, Germany).

human SIRPα = target: T2, human SIRPα (Homo sapiens, UniProt P78324); assay: Microscale thermophoresis (MST) binding
T2 construct: His; purchased ACRO Biosystem SIA-H5225
T2 sequence (P78324 31-504): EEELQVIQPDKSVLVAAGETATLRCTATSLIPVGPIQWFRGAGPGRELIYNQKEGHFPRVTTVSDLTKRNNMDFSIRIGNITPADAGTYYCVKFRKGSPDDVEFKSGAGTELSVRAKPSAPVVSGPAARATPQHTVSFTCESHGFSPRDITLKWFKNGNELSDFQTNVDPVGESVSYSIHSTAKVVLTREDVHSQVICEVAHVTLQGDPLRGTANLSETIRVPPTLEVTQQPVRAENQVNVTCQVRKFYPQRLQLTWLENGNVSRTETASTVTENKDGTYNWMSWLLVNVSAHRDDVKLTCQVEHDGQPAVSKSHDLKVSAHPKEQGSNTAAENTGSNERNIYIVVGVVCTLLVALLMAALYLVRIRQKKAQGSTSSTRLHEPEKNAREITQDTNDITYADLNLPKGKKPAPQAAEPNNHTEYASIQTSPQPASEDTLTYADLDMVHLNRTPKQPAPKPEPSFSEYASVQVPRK
Experimental: as §1

mouse PVR = mouse PVR (Mus musculus, UniProt F6V4I7); assay: Microscale thermophoresis (MST) binding
Chain of mouse PVR (F6V4I7 29-347): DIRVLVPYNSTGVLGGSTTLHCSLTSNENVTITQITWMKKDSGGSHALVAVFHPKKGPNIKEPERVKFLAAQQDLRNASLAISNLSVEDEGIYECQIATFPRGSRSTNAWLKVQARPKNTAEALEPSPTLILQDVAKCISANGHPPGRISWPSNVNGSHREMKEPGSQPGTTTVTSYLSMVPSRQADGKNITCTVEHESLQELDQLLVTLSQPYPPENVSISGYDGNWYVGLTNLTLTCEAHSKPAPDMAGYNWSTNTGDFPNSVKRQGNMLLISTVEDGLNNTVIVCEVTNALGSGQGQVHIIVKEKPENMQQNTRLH
Experimental: as §1

mouse SIRPα = target: T3, mouse SIRPα (Mus musculus, UniProt P97797); assay: Microscale thermophoresis (MST) binding
T3 construct: His; purchased Sino Biological 50956-M08H
T3 sequence (P97797 32-513): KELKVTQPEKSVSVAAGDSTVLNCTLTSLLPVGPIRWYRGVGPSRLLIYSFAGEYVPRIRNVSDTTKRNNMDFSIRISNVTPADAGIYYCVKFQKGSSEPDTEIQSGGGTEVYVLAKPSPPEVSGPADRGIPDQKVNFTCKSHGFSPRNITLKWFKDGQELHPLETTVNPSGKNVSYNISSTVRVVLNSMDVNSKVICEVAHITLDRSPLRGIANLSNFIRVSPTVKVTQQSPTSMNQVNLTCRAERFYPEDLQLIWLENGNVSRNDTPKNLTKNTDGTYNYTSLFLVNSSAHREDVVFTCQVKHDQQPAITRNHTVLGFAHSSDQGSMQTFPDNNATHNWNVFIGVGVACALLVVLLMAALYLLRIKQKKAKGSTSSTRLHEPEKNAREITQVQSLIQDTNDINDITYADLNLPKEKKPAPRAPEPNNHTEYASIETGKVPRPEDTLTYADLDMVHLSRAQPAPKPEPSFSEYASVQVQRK
Experimental: as §1

CT26 tumors = assay: CT26 tumor model with ex vivo T cell analysis; format: in vivo, BALB/c mice; conditions: for Spleen CD8+IFN-γ (%): splenocytes
Experimental: BABL/c mice were subcutaneously (s.c.) injected with 2 × 10^5 CT26 cells on the right back, and C57BL/6 mice were injected with 1 × 10^6 MC38 cells. One week later, tumor-bearing mice were randomized into indicated groups, and intraperitoneal (i.p.) injected with azelnidipine or normal saline every day for two weeks. Tumor volumes were measured every other day by the (a) length, (b) width, and (c) height and calculated as volume (V) = a × b × c/2. For the combinational model of azelnidipine and radiotherapy (RT), MC38 tumor-bearing mice received irradiation (IR) when the tumors reached 80–100 mm^3. The mice received one dose of 20 Gy irradiation at the tumor local site, and followed by the treatment of azelnidipine.
Tumor-bearing mice were sacrificed at the end of the treatment. The tumors were dissected and digested into single cell with an enzyme cocktail of 100 U/mL collagenase IV; and Dnase I. The infiltration of CD8^+ T cells at the tumor site was detected by flow cytometry by staining of anti-mouse CD45, anti-mouse CD3, anti-mouse CD8α or isotype control. The MDSCs at the tumor site were analyzed by staining of anti-mouse CD45, anti-mouse CD11b, anti-mouse Ly6C, and anti-mouse Ly6G. Spleens and draining lymph nodes were grinded and filtered into a single cell suspension. The tumor-infiltrating lymphocytes (TILs) isolated by Percoll-gradient centrifugation, splenocytes, and cells from draining lymph nodes were also performed the intracellular cytokine staining assays. The cells were stimulated with or without 20 ng/mL of phorbol 12-myristate 13-acetate (PMA, Sigma-Aldrich, St. Louis, MO, USA) and 1 µM ionomycin (Sigma-Aldrich) with the presence of protein transport inhibitor cocktail (eBioscience) for 4 h. The surface marker CD3, CD8, and the intracellular cytokine marker IFN-γ were sequentially stained according to the Foxp3/Transcription Factor Staining Buffer Set (00-5523, eBioscience). The frequency of IFN-γ secreting CD8^+ T cells were counted according to the fluorescence minus one (FMO) control with the isotype control of IFN-γ antibody.
Figure 6 The antitumor effects of azelnidipine in CT26 tumor model. (A) CT26 tumor-bearing mice were i.p. administrated with 2 or 5 mg/kg of azelnidipine each day for 2 weeks as in the schematic diagram. (B) Tumor growth curve of CT26 tumor-bearing mice treated with normal saline or azelnidipine (n = 7). *, p < 0.05, ***, p < 0.001.Two-way ANOVA with Tukey’s multiple-comparisons test were conducted. (C) Representative flow cytometry plots and summary data of the frequency of CD8^+ T cells in the tumor tissues. Representative intracellular IFN-γ staining plots and summary data of the tumor infiltrating CD8^+ T cells (D), tumor-draining lymph node cells (E) and splenocytes (F). The frequency of IFN-γ secreting CD8^+ T cells were counted according to the fluorescence minus one (FMO) control with the isotype control of IFN-γ antibody. *, p < 0.05, **, p < 0.01, Student’s t-test were conducted. TEXT PRINTED IN THE PICTURE: (C) NS: Tumor CD3^+CD8^+ (%): 6.27 | (C) Azelnidipine: Tumor CD3^+CD8^+ (%): 7.46 (2 mg/kg); Tumor CD3^+CD8^+ (%): 9.35 (5 mg/kg) | (D) NS: Tumor CD8^+IFN-γ (%): 14.8 | (D) Azelnidipine: Tumor CD8^+IFN-γ (%): 12.4 (2 mg/kg); Tumor CD8^+IFN-γ (%): 20.0 (5 mg/kg) | (E) NS: dLN CD8^+IFN-γ (%): 0.45 | (E) Azelnidipine: dLN CD8^+IFN-γ (%): 0.53 (2 mg/kg); dLN CD8^+IFN-γ (%): 1.10 (5 mg/kg) | (F) NS: Spleen CD8^+IFN-γ (%): 5.32 | (F) Azelnidipine: Spleen CD8^+IFN-γ (%): 7.71 (2 mg/kg); Spleen CD8^+IFN-γ (%): 7.91 (5 mg/kg) DOUBTS OF THE COPYIST ABOUT THIS PICTURE: Panels C-F: the flow plots are headed only 'NS', '2 mg/kg' and '5 mg/kg'. The name 'Azelnidipine' is taken from panels A and B of the same picture. / Panels C-F: the numbers in the flow plots have no measure or unit beside them. The measure (e.g. 'CD3^+CD8^+ (%)') and the tissue ('Tumor', 'dLN', 'Spleen') are taken from the bar chart in the same panel. / NS is the control group. […]

various tumor cells = test system: various tumor cells; set-up: method as in earlier work; conditions: cited from earlier work

- Kd (human PVR): 6.48 µM
- Kd (human SIRPα): 5.37 µM
- Kd (mouse PVR): 13.3 µM
- Kd (mouse SIRPα): 3.75 µM
Compound: CC1=C(C(=O)OC(C)C)C(c2cccc([N+](=O)[O-])c2)C(C(=O)OC2CN(C(c3ccccc3)c3ccccc3)C2)=C(N)N1 (centres unmarked) [Azelnidipine]
- Spleen CD8+IFN-γ (%) (CT26 tumors; 2 mg/kg i.p. (low dosage)): enhance
- Spleen CD8+IFN-γ (%) (CT26 tumors; 5 mg/kg i.p. (high dosage)): significantly boost
- dLN CD8+IFN-γ (%) (CT26 tumors; 5 mg/kg i.p. (high dosage), tumor-draining lymph node): significantly boost
- CT26 tumor growth (CT26 tumors; 2 and 5 mg/kg i.p. each day for 2 weeks): significantly restrict
- IFN-γ secretion function of the tumor infiltrating CD8+ T cells (CT26 tumors; dose not given): enhanced
- frequency of CD8+ T cells in the tumor tissues (CT26 tumors; dose not given): remarkably increase
- growth of various tumor cells in vitro (various tumor cells): inhibit the growth of various tumor cells in vitro

Reference: paper PMC8150775, “Repositioning Azelnidipine as a Dual Inhibitor Targeting CD47/SIRPα and TIGIT/PVR Pathways for Cancer Immuno-Therapy” (Biomolecules, 2021)
